In ChEMBL document CHEMBL1201862, “PubChem BioAssay data set” (2004):
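Assay format: 96-well plates, 48-hour exposure. GI50 is the concentration that inhibits growth by half.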 Calls of active or inactive are those of the source. Rule as the data show it: active = GI50 up to about 1.1 µM and inactive = higher.

Columns and labels:
Assay in all cases: NCI-60 cell line screen, 48 h
SNB-19 = test system: SNB-19
HCT-15 = test system: HCT-15
786-0 = test system: 786-0
NCI-H460 = test system: NCI-H460
MDA-MB-435 = test system: MDA-MB-435
SF-295 = test system: SF-295
IGROV-1 = test system: IGROV-1
K562 = test system: K562
MCF7 = test system: MCF7
OVCAR-3 = test system: OVCAR-3
UACC-62 = test system: UACC-62
SK-MEL-28 = test system: SK-MEL-28
T47D = test system: T47D
HL-60 = test system: HL-60
TK-10 = test system: TK-10
UO-31 = test system: UO-31
OVCAR-5 = test system: OVCAR-5
BT-549 = test system: BT-549
KM12 = test system: KM12
SW-620 = test system: SW-620
CCRF-CEM = test system: CCRF-CEM
HT-29 = test system: HT-29
HOP-62 = test system: HOP-62
SN12C = test system: SN12C
A549 = test system: A549
HOP-92 = test system: HOP-92
M14 = test system: M14
HCC 2998 = test system: HCC 2998
HCT-116 = test system: HCT-116
RPMI-8226 = test system: RPMI-8226
OVCAR-8 = test system: OVCAR-8
SF-539 = test system: SF-539
EKVX = test system: EKVX
UACC-257 = test system: UACC-257
MDA-MB-231 = test system: MDA-MB-231
OVCAR-4 = test system: OVCAR-4
RXF 393 = test system: RXF 393
SK-MEL-5 = test system: SK-MEL-5
SF-268 = test system: SF-268
MDA-N = test system: MDA-N
NCI-H522 = test system: NCI-H522
SK-OV-3 = test system: SK-OV-3
COLO 205 = test system: COLO 205
SR = test system: SR
DU-145 = test system: DU-145
U-251 = test system: U-251
NCI-H23 = test system: NCI-H23
LOX IMVI = test system: LOX IMVI
MOLT-4 = test system: MOLT-4
PC-3 = test system: PC-3
CAKI-1 = test system: CAKI-1
SK-MEL-2 = test system: SK-MEL-2
ACHN = test system: ACHN
NCI-H226 = test system: NCI-H226
SNB-75 = test system: SNB-75
NCI/ADR-RES = test system: NCI/ADR-RES
A498 = test system: A498
Malme-3M = test system: Malme-3M

SMILES: O=C1CSC(c2c[nH]c3ccccc23)N1c1ccccc1[N+](=O)[O-] (configuration not stated)
- GI50 (SNB-19): > 100 µM (inactive)
- GI50 (HCT-15): > 100 µM
- GI50 (786-0): > 100 µM (inactive)
- GI50 (NCI-H460): > 100 µM (inactive)
- GI50 (MDA-MB-435): > 100 µM (inactive)
- GI50 (SF-295): > 100 µM (inactive)
- GI50 (IGROV-1): > 100 µM (inactive)
- GI50 (K562): > 100 µM (inactive)
- GI50 (MCF7): > 100 µM (inactive)
- GI50 (OVCAR-3): > 100 µM (inactive)
- GI50 (UACC-62): > 100 µM (inactive)
- GI50 (SK-MEL-28): > 100 µM (inactive)
- GI50 (T47D): > 100 µM (inactive)
- GI50 (HL-60): > 100 µM (inactive)
- GI50 (TK-10): > 100 µM (inactive)
- GI50 (UO-31): > 100 µM (inactive)
- GI50 (OVCAR-5): > 100 µM (inactive)
- GI50 (BT-549): > 100 µM (inactive)
- GI50 (KM12): > 100 µM (inactive)
- GI50 (SW-620): > 100 µM (inactive)
- GI50 (CCRF-CEM): > 100 µM (inactive)
- GI50 (HT-29): > 100 µM (inactive)
- GI50 (HOP-62): > 100 µM (inactive)
- GI50 (SN12C): > 100 µM (inactive)
- GI50 (A549): > 100 µM (inactive)
- GI50 (HOP-92): > 100 µM (inactive)
- GI50 (M14): > 100 µM (inactive)
- GI50 (HCC 2998): > 100 µM (inactive)
- GI50 (HCT-116): > 100 µM (inactive)
- GI50 (RPMI-8226): > 100 µM (inactive)
- GI50 (OVCAR-8): > 100 µM (inactive)
- GI50 (SF-539): > 100 µM (inactive)
- GI50 (EKVX): > 100 µM (inactive)
- GI50 (UACC-257): > 100 µM (inactive)
- GI50 (MDA-MB-231): > 100 µM (inactive)
- GI50 (OVCAR-4): > 100 µM (inactive)
- GI50 (RXF 393): > 10 µM (inactive)
- GI50 (SK-MEL-5): > 100 µM (inactive)
- GI50 (SF-268): > 100 µM (inactive)
- GI50 (MDA-N): > 100 µM (inactive)
- GI50 (NCI-H522): > 100 µM (inactive)
- GI50 (SK-OV-3): > 100 µM (inactive)
- GI50 (COLO 205): > 100 µM (inactive)
- GI50 (SR): > 100 µM (inactive)
- GI50 (DU-145): > 100 µM (inactive)
- GI50 (U-251): > 100 µM (inactive)
- GI50 (NCI-H23): > 100 µM (inactive)
- GI50 (LOX IMVI): > 100 µM (inactive)
- GI50 (MOLT-4): > 100 µM (inactive)
- GI50 (PC-3): > 100 µM (inactive)

SMILES: N#C/C(C(=O)Nc1ccc(Cl)cc1)=C(/N)N1CCOCC1
- GI50 (SNB-19): > 100 µM (inactive)
- GI50 (HCT-15): > 100 µM
- GI50 (786-0): > 100 µM (inactive)
- GI50 (CAKI-1): > 100 µM (inactive)
- GI50 (NCI-H460): > 100 µM (inactive)
- GI50 (MDA-MB-435): 56.9 µM (inactive)
- GI50 (SF-295): > 100 µM (inactive)
- GI50 (SK-MEL-2): > 100 µM (inactive)
- GI50 (IGROV-1): > 100 µM (inactive)
- GI50 (K562): 61.2 µM (inactive)
- GI50 (ACHN): > 100 µM (inactive)
- GI50 (MCF7): > 100 µM (inactive)
- GI50 (OVCAR-3): 96.8 µM (inactive)
- GI50 (UACC-62): 77.8 µM (inactive)
- GI50 (SK-MEL-28): 76 µM (inactive)
- GI50 (T47D): > 100 µM (inactive)
- GI50 (UO-31): 91 µM (inactive)
- GI50 (NCI-H226): > 100 µM (inactive)
- GI50 (OVCAR-5): > 100 µM (inactive)
- GI50 (BT-549): > 100 µM (inactive)
- GI50 (KM12): > 100 µM (inactive)
- GI50 (SW-620): > 100 µM (inactive)
- GI50 (CCRF-CEM): > 100 µM (inactive)
- GI50 (HT-29): > 100 µM (inactive)
- GI50 (HOP-62): 73.3 µM (inactive)
- GI50 (SN12C): > 100 µM (inactive)
- GI50 (A549): > 100 µM (inactive)
- GI50 (HOP-92): > 100 µM (inactive)
- GI50 (SNB-75): 65.5 µM (inactive)
- GI50 (NCI/ADR-RES): > 100 µM (inactive)
- GI50 (M14): 86.3 µM (inactive)
- GI50 (HCC 2998): > 100 µM (inactive)
- GI50 (HCT-116): > 100 µM (inactive)
- GI50 (RPMI-8226): > 100 µM (inactive)
- GI50 (OVCAR-8): > 100 µM (inactive)
- GI50 (SF-539): > 100 µM (inactive)
- GI50 (EKVX): > 100 µM (inactive)
- GI50 (UACC-257): 47.4 µM (inactive)
- GI50 (SK-MEL-5): 74.5 µM (inactive)
- GI50 (A498): > 100 µM (inactive)
- GI50 (MDA-N): 61.8 µM (inactive)
- GI50 (SK-OV-3): > 100 µM (inactive)
- GI50 (COLO 205): > 100 µM (inactive)
- GI50 (SR): > 100 µM (inactive)
- GI50 (DU-145): 94 µM (inactive)
- GI50 (U-251): > 100 µM (inactive)
- GI50 (NCI-H23): > 100 µM (inactive)
- GI50 (LOX IMVI): > 100 µM (inactive)
- GI50 (MOLT-4): 64 µM (inactive)
- GI50 (PC-3): > 100 µM (inactive)

SMILES: COc1ccc2nc(-c3ccc(O)cc3)sc2c1
- GI50 (SNB-19): 34.7 µM (inactive)
- GI50 (HCT-15): 17.9 µM
- GI50 (786-0): 15.6 µM (inactive)
- GI50 (CAKI-1): 29.3 µM (inactive)
- GI50 (NCI-H460): 39.3 µM (inactive)
- GI50 (MDA-MB-435): 25.2 µM (inactive)
- GI50 (SF-295): 19.8 µM (inactive)
- GI50 (SK-MEL-2): 43.4 µM (inactive)
- GI50 (IGROV-1): 19.1 µM (inactive)
- GI50 (K562): 36.2 µM (inactive)
- GI50 (ACHN): 18 µM (inactive)
- GI50 (MCF7): 34.7 µM (inactive)
- GI50 (OVCAR-3): 19.6 µM (inactive)
- GI50 (UACC-62): 21.7 µM (inactive)
- GI50 (T47D): 17.5 µM (inactive)
- GI50 (HL-60): 24 µM (inactive)
- GI50 (TK-10): 34.7 µM (inactive)
- GI50 (UO-31): 16.1 µM (inactive)
- GI50 (NCI-H226): 23.5 µM (inactive)
- GI50 (OVCAR-5): 17.7 µM (inactive)
- GI50 (BT-549): 18.7 µM (inactive)
- GI50 (KM12): 26.5 µM (inactive)
- GI50 (SW-620): 21.8 µM (inactive)
- GI50 (HT-29): 20 µM (inactive)
- GI50 (SN12C): 20.6 µM (inactive)
- GI50 (A549): 36.6 µM (inactive)
- GI50 (NCI/ADR-RES): 29.8 µM (inactive)
- GI50 (M14): 22.7 µM (inactive)
- GI50 (HCT-116): 17.5 µM (inactive)
- GI50 (RPMI-8226): < 0.01 µM (active)
- GI50 (OVCAR-8): 20.7 µM (inactive)
- GI50 (SF-539): 21.4 µM (inactive)
- GI50 (EKVX): 18.1 µM (inactive)
- GI50 (UACC-257): 21.6 µM (inactive)
- GI50 (MDA-MB-231): 23 µM (inactive)
- GI50 (OVCAR-4): 28.5 µM (inactive)
- GI50 (RXF 393): 20.1 µM (inactive)
- GI50 (SK-MEL-5): 18.2 µM (inactive)
- GI50 (SF-268): 21.1 µM (inactive)
- GI50 (A498): 30.3 µM (inactive)
- GI50 (MDA-N): 22.5 µM (inactive)
- GI50 (NCI-H522): 16.8 µM (inactive)
- GI50 (SK-OV-3): 32.5 µM (inactive)
- GI50 (COLO 205): 21.5 µM (inactive)
- GI50 (SR): 4.86 µM (inactive)
- GI50 (DU-145): 34.7 µM (inactive)
- GI50 (U-251): 19.6 µM (inactive)
- GI50 (NCI-H23): 20.8 µM (inactive)
- GI50 (Malme-3M): 23.5 µM (inactive)
- GI50 (LOX IMVI): 22.6 µM (inactive)
- GI50 (MOLT-4): 27.9 µM (inactive)
- GI50 (PC-3): 18.5 µM (inactive)
